From PubChem BioAssay AID248 (DTP/NCI, 2004)
Where “and” joins values, the source holds several entries; their conditions need not be identical. Equal values may be shown once. Toxic doses and inconclusive results are not listed. Cut-off read from the data, not from the text of the source: active = T/C of 150% or more; inactive = T/C below 125%.

Tested on: L1210 leukemia ip in BDF1 mice, survival T/C
Test: NCI In Vivo Anticancer Drug Screen. Data for tumor model L1210 Leukemia (intraperitoneal) in B6D2F1 (BDF1) mice
Conditions: endpoint: mean survival time, higher = longer survival
Method in brief: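 In this screen, tumor-bearing mice given compound are compared to those given vehicle, and their survival values are reported as a treated-to-control quotient.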

[1] = dose: 100.0 mg/kg/injection, schedule: Q01DX009 (ip), vehicle: Klucel (hydroxypropylcellulose) (HPC)
[2] = dose: 100.0 mg/kg/injection, schedule: Q04DX003 (ip), vehicle: Klucel (hydroxypropylcellulose) (HPC)
[3] = dose: 200.0 mg/kg/injection, schedule: Q01DX009 (ip), vehicle: Klucel (hydroxypropylcellulose) (HPC)
[4] = dose: 200.0 mg/kg/injection, schedule: Q04DX003 (ip), vehicle: Klucel (hydroxypropylcellulose) (HPC)
[5] = dose: 400.0 mg/kg/injection, schedule: Q04DX003 (ip), vehicle: Klucel (hydroxypropylcellulose) (HPC)
[6] = dose: 100.0 mg/kg/injection, schedule: Q01DX009 (ip), vehicle: saline with Tween-80
[7] = dose: 100.0 mg/kg/injection, schedule: Q04DX003 (ip), vehicle: saline with Tween-80
[8] = dose: 200.0 mg/kg/injection, schedule: Q01DX009 (ip), vehicle: saline with Tween-80
[9] = dose: 200.0 mg/kg/injection, schedule: Q04DX003 (ip), vehicle: saline with Tween-80
[10] = dose: 400.0 mg/kg/injection, schedule: Q01DX009 (ip), vehicle: saline with Tween-80
[11] = dose: 400.0 mg/kg/injection, schedule: Q04DX003 (ip), vehicle: saline with Tween-80
[12] = dose: 100.0 mg/kg/injection, schedule: Q01DX009 (ip), vehicle: saline sonified
[13] = dose: 200.0 mg/kg/injection, schedule: Q01DX009 (ip), vehicle: saline sonified
[14] = dose: 400.0 mg/kg/injection, schedule: Q01DX009 (ip), vehicle: saline sonified
[15] = dose: 100.0 mg/kg/injection, schedule: Q04DX002 (ip), vehicle: saline
[16] = dose: 100.0 mg/kg/injection, schedule: Q04DX003 (ip), vehicle: other
[17] = dose: 200.0 mg/kg/injection, schedule: Q04DX003 (ip), vehicle: other
[18] = dose: 400.0 mg/kg/injection, schedule: Q04DX003 (ip), vehicle: other
[19] = dose: 100.0 mg/kg/injection, schedule: Q01DX001 (ip), vehicle: other
[20] = dose: 200.0 mg/kg/injection, schedule: Q01DX001 (ip), vehicle: other
[21] = dose: 400.0 mg/kg/injection, schedule: Q01DX001 (ip), vehicle: other

Measured: T/C

Cc1ccc(NC(=O)c2cccc(C(=O)Nc3ccc(C)c(Cl)c3)c2)cc1Cl
inactive: [1] 91 % of control | [2] 95 % of control | [3] 97 % of control | [4] 96 % of control | dose: 400.0 mg/kg/injection, schedule: Q01DX009 (ip), vehicle: Klucel (hydroxypropylcellulose) (HPC) 92 % of control | [5] 106 % of control

O=C1C(c2ccccc2)=C(c2ccccc2)C2(c3ccccc3)CN=NC12c1ccccc1 (stereo not given)
inactive: [2] 90 % of control | [4] 94 % of control | [5] 92 % of control

O=C1CCCCC1(CCc1ccncc1)CCc1ccncc1
inactive: dose: 44.0 mg/kg/injection, schedule: Q01DX Z (ip), vehicle: methylcellulose (MC) 96 % of control | dose: 66.0 mg/kg/injection, schedule: Q01DX Z (ip), vehicle: methylcellulose (MC) 102 % of control | dose: 100.0 mg/kg/injection, schedule: Q01DX Z (ip), vehicle: methylcellulose (MC) 109 % of control

c1ccc(N/N=C(\c2ccccc2)c2cccs2)cc1
inactive: [6] 97 % of control | [7] 98 % of control | [8] 97 % of control | [9] 104 % of control | [10] 91 % of control | [11] 98 % of control

COC(=O)C1C2C(C)CC3(CC12C)OCCO3 (stereo not given)
inactive: [12] 92 % of control | [2] 102 % of control | [13] 97 % of control | [4] 93 % of control | [14] 92 % of control | [5] 86 % of control

COc1ccc(C(=NN=C(N)N)c2ccc(OC)cc2)cc1
inactive: dose: 15.0 mg/kg/injection, schedule: Q01DX Z (ip), vehicle: saline 96 % of control | dose: 30.0 mg/kg/injection, schedule: Q01DX Z (ip), vehicle: saline 100 % of control | dose: 30.0 mg/kg/injection, schedule: Q01DX Z (oral), vehicle: saline 105 % of control | dose: 60.0 mg/kg/injection, schedule: Q01DX Z (ip), vehicle: saline 96 % of control | dose: 60.0 mg/kg/injection, schedule: Q01DX Z (oral), vehicle: saline 97 % of control | dose: 120.0 mg/kg/injection, schedule: Q01DX Z (oral), vehicle: saline 105 % of control | dose: 240.0 mg/kg/injection, schedule: Q01DX Z (oral), vehicle: saline 92 % of control | dose: 480.0 mg/kg/injection, schedule: Q01DX Z (oral), vehicle: saline 94 % of control

N=C(CN1CCCCC1)N1CCCCC1
inactive: [15] 104 % of control

CCCCCCCCCCCCCCCCCCOc1ccccc1
inactive: dose: 100.0 mg/kg/injection, schedule: Q01DX009 (sc), vehicle: olive oil, sesame oil, peanut oil 94 % of control | dose: 100.0 mg/kg/injection, schedule: Q04DX003 (sc), vehicle: olive oil, sesame oil, peanut oil 95 % of control | dose: 200.0 mg/kg/injection, schedule: Q01DX009 (sc), vehicle: olive oil, sesame oil, peanut oil 99 % of control | dose: 200.0 mg/kg/injection, schedule: Q04DX003 (sc), vehicle: olive oil, sesame oil, peanut oil 101 % of control | dose: 400.0 mg/kg/injection, schedule: Q01DX009 (sc), vehicle: olive oil, sesame oil, peanut oil 94 % of control | dose: 400.0 mg/kg/injection, schedule: Q04DX003 (sc), vehicle: olive oil, sesame oil, peanut oil 108 % of control

COc1ccc2c(c1)C13CCCCC1C(C2)N(CC1(c2ccccc2)CC1)CC3 (stereo not given)
inactive: [1] 98 % of control | [2] 96 % of control | [3] 90 % of control | [4] 93 % of control | [5] 101 % of control

CCc1nc2c(OC)ccc(OC)c2[nH]c1=O
inactive: [16] 103 % of control | [17] 103 % of control | [18] 106 % of control

CC(=O)OC1=CCCCC1c1ccccc1 (stereo not given)
inactive: [6] 103 % of control | [7] 98 % of control | [8] 111 % of control | [9] 98 % of control | [10] 103 % of control | [11] 109 % of control

CCOCCOCCOC(C)Oc1ccc(Cl)cc1C (stereo not given)
inactive: dose: 100.0 mg/kg/injection, schedule: Q04DX002 (ip), vehicle: saline with Tween-80 123 % of control | dose: 200.0 mg/kg/injection, schedule: Q04DX002 (ip), vehicle: saline with Tween-80 100 % of control | dose: 400.0 mg/kg/injection, schedule: Q04DX002 (ip), vehicle: saline with Tween-80 103 % of control

O=[N+]([O-])c1ccc(S(=O)(=O)Nc2ccc(-c3ccccc3)cc2)cc1
inactive: dose: 100.0 mg/kg/injection, schedule: Q01DX009 (ip), vehicle: other 110 % of control | [16] 93 % of control | dose: 200.0 mg/kg/injection, schedule: Q01DX009 (ip), vehicle: other 98 % of control | [17] 96 % of control | dose: 400.0 mg/kg/injection, schedule: Q01DX009 (ip), vehicle: other 94 % of control | [18] 89 % of control

OC(CCl)CN1CC[N+]2(CC1)CC[N+]1(CCN(CC(O)CCl)CC1)CC2 (stereo not given)
inactive: dose: 37.5 mg/kg/injection, schedule: Q01DX009 (ip), vehicle: water 100 % of control | dose: 59.0 mg/kg/injection, schedule: Q01DX009 (ip), vehicle: water 105 % of control | dose: 75.0 mg/kg/injection, schedule: Q01DX009 (ip), vehicle: water 101 % of control | dose: 88.0 mg/kg/injection, schedule: Q01DX009 (ip), vehicle: water 104 % of control | dose: 132.0 mg/kg/injection, schedule: Q01DX009 (ip), vehicle: water 107 % of control | dose: 150.0 mg/kg/injection, schedule: Q01DX009 (ip), vehicle: water 114 % of control | dose: 200.0 mg/kg/injection, schedule: Q01DX009 (ip), vehicle: water 102 % of control | dose: 300.0 mg/kg/injection, schedule: Q01DX009 (ip), vehicle: water 93 % of control and 95 % of control

CN(C)CCN=C(N)N[N+](=O)[O-]
inactive: [15] 110 % of control | dose: 200.0 mg/kg/injection, schedule: Q04DX002 (ip), vehicle: saline 96 % of control | dose: 400.0 mg/kg/injection, schedule: Q04DX002 (ip), vehicle: saline 100 % of control

Clc1ccc2nc(/C=C/c3ccccc3)ccc2c1
inactive: [19] 95 % of control | [20] 104 % of control | [21] 98 % of control

Cc1ccc(C(=O)CC(=O)Nc2cc([N+](=O)[O-])ccc2OCCOc2ccc(C(C)(C)CC(C)(C)C)cc2)cc1
inactive: [12] 100 % of control | [2] 112 % of control | [13] 97 % of control | [4] 89 % of control | [14] 87 % of control | [5] 94 % of control

CCSC(=O)n1ncc2cc(Cl)ccc21
inactive: [19] 105 % of control | [20] 97 % of control | [21] 108 % of control

O=[N+]([O-])c1ccc(N=Nc2ccc(O)cc2)cc1
inactive: dose: 55.0 mg/kg/injection, schedule: Q01DX Z (ip), vehicle: methylcellulose (MC) 103 % of control | dose: 83.0 mg/kg/injection, schedule: Q01DX Z (ip), vehicle: methylcellulose (MC) 117 % of control | [7] 98 % of control | dose: 125.0 mg/kg/injection, schedule: Q01DX Z (ip), vehicle: methylcellulose (MC) 103 % of control | [9] 91 % of control | [11] 98 % of control

CCOCCOCCCNCc1cnc2nc(N)nc(N)c2n1
inactive: dose: 10.0 mg/kg/injection, schedule: Q01DX009 (ip), vehicle: saline 97 % of control | dose: 20.0 mg/kg/injection, schedule: Q01DX009 (ip), vehicle: saline 103 % of control | dose: 40.0 mg/kg/injection, schedule: Q01DX009 (ip), vehicle: saline 103 % of control

CC(C)C(NC(=O)CCNC(=O)OCc1ccccc1)C(=O)O (stereo not given)
inactive: [7] 97 % of control | [9] 97 % of control | [11] 97 % of control

CCOC(=O)CCC(NC(=O)c1ccc(I)cc1)C(=O)OCC (stereo not given)
inactive: [2] 94 % of control | [4] 96 % of control | [5] 102 % of control
